Experimental data: patent US4963563A, “6-substituted-1,2,3,4-tetrahydroisoquinolines” (Abbott Laboratories, priority 1989, dated 1990)
Structures can show the parent of a compound that is named as a salt.

Key:
alpha-1-receptor = target: T1, alpha-1-receptor (Rattus norvegicus, UniProt P15823); test: Radioligand binding, alpha-1 adrenoceptor ([3H]-pyrazosin, rat liver homogenates)
T1 sequence (P15823 1-515): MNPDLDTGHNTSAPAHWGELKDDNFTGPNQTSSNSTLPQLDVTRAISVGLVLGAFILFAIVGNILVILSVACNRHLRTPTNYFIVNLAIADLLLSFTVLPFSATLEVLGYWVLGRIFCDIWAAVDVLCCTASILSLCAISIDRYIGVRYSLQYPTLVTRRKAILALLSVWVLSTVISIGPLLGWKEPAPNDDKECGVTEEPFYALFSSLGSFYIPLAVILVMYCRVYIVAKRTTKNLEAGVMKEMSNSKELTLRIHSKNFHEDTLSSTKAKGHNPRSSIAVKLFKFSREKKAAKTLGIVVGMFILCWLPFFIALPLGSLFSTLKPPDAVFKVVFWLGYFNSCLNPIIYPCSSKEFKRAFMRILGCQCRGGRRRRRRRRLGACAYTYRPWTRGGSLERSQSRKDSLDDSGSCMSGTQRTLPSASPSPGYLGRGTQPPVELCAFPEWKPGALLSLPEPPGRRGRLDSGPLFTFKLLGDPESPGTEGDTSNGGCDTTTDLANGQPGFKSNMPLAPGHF

[1] = tested on: normal eyes of rabbits (intraocular pressure); test: Antiglaucoma activity: intraocular pressure after instillation into normal eyes of rabbits; format: in vivo, male, albino New Zealand rabbits
Method: In order to evaluate antiglaucoma activity, the test compounds were dissolved in the vehicle, a 0.2% aqueous solution of hydroxymethylcellulose at various concentrations such as 0.03%, 0.1%, or 0.3%. Comparisons were made to the reference standard, pilocarpine hydrochloride which was dissolved in the vehicle at a concentration of 0.5%. Control treatment was a volume dose of vehicle.
Male, albino New Zealand rabbits (Scientific Animal Farms and/or Kuiper's Rabbit Ranch) weighing 2.06-2.5 kg were used in the study. Intraocular pressures were obtained in the normal eyes of the animals using a Bausch and Lomb Applamatic Tonometer. Three separate sessions provided the baseline pressures for each eye. The test compound or vehicle (0.1 mL) was instilled into the eyes of 6 different rabbits according to a randomized dosing schedule. Intraocular pressures were taken at 5, 15, 30, 45, 60, 90 and 120 minutes after instillation of the test compounds.
Statistical treatment was by one-way analysis of variance. Results are shown (Table 1) for a representative sample of the compounds claimed.

alpha-2-receptor = test: Radioligand binding, alpha-2 adrenoceptor ([3H]-rauwolscine, rat cerebral cortices)
[2] = 5 minutes after administration, 0.3% solution, 0.1 mL instilled
[3] = 15 minutes after administration, 0.3% solution, 0.1 mL instilled
[4] = 90 minutes after administration, 0.3% solution, 0.1 mL instilled
[5] = 120 minutes after administration, 0.3% solution, 0.1 mL instilled

SMILES | Ki (alpha-1-receptor) | Percent Change in IOP vs Baseline [1, 2] | Percent Change in IOP vs Baseline [1, 3] | Percent Change in IOP vs Baseline [1, 4] | Percent Change in IOP vs Baseline [1, 5] | Ki (alpha-2-receptor) | further results
COc1ccc2c(c1)CCN(CCCc1cccs1)C2.Cl [Example 2, 1,2,3,4-Tetrahydro-6-methoxy-N-3-(2-thienyl)propylisoquinoline hydrochloride] | 150 nM | -50% | -41% | -13% | +8% | 4.3 nM | –
COc1ccc2c(c1)CCN(CCCc1cccc(F)c1)C2 [Example 5, 1,2,3,4-Tetrahydro-6-methoxy-N-3-(m-fluorophenyl)propyl isoquinoline hydrochloride] | 206 nM | – | – | – | – | 4.6 nM | –
COc1ccc2c(c1)CCN(CCCc1ccco1)C2 [Example 6, 1,2,3,4-Tetrahydro-6-methoxy-N-3-(2-furyl)propylisoquinoline hydrochloride] | 154 nM | – | – | – | – | 2.2 nM | –
COc1ccc2c(c1)CCN(CCCc1ccccc1)C2 [Example 7, 1,2,3,4-Tetrahydro-6-methoxy-N-(3-phenylpropyl)isoquinoline hydrochloride] | 217 nM | – | – | – | – | 5.9 nM | –
COc1cccc(CCCN2CCc3cc(OC)ccc3C2)c1 [Example 8, 1,2,3,4-Tetrahydro-6-methoxy-N-3-(3-methoxyphenyl)propyl isoquinoline hydrochloride] | 174 nM | – | – | – | – | 10.7 nM | –
Cc1ccc2c(c1)CCN(CCCc1ccccc1)C2 [Example 13, 1,2,3,4-Tetrahydro-6-methyl-N-(3-(phenylpropylisoquinoline Hydrochloride] | 114 nM | – | – | – | – | 5.6 nM | –
CC(C)(C)C(=O)Oc1ccc2c(c1)CCN(CCCc1cccs1)C2.CS(=O)(=O)O [Example 16, 1,2,3,4-Tetrahydro-6-trimethylacetoxy-N-3-(2-thienyl)propylisoquinoline methane sulfonate] | – | -11% | -12% | -36% | -4% | – | –
CN(C)C(=O)Oc1ccc2c(c1)CCN(CCCc1cccs1)C2.CS(=O)(=O)O [Example 18, 1,2,3,4-Tetrahydro-6-((dimethylamino)carbonyl)oxy-2-N-(3-(2-thienyl)propyl)isoquinoline methane sulfonate] | – | -38% | -26% | -48% | -12% | – | –
CC[C@@H]1C(=O)OC[C@@H]1Cc1cncn1C [Pilocarpine, pilocarpine hydrochloride, reference compound] | – | – | – | – | – | – | Percent Change in IOP vs Baseline ([1]; 15 minutes after administration, 0.5% solution (reference standard)): -22%; Percent Change in IOP vs Baseline ([1]; 90 minutes after administration, 0.5% solution (reference standard)): -20%; Percent Change in IOP vs Baseline ([1]; 120 minutes after administration, 0.5% solution (reference standard)): -33%
